Legend:
[1] = target: T1, Melanin-concentrating hormone receptor 1 (Homo sapiens, UniProt Q99705); assay: Inhibition of human melanin concentrating hormone receptor 1
[2] = Area under curve(0-6 h) for the compound administered orally at 10 mg/kg in rat; format: ADME, organism-based; parameters: time < 6 hr, dose 10 mg/kg, route oral; conditions: in vivo, po
[3] = target: T1, Melanin-concentrating hormone receptor 1; assay: Inhibition of calcium influx into cells expressing hMCH-R1 in FLIPR assay; format: functional
[4] = target: Sodium-dependent serotonin transporter (Rattus norvegicus, UniProt P31652); assay: Inhibition of 5-hydroxytryptamine reuptake by serotonin transporter
Sequence of Sodium-dependent serotonin transporter (P31652 whole entry): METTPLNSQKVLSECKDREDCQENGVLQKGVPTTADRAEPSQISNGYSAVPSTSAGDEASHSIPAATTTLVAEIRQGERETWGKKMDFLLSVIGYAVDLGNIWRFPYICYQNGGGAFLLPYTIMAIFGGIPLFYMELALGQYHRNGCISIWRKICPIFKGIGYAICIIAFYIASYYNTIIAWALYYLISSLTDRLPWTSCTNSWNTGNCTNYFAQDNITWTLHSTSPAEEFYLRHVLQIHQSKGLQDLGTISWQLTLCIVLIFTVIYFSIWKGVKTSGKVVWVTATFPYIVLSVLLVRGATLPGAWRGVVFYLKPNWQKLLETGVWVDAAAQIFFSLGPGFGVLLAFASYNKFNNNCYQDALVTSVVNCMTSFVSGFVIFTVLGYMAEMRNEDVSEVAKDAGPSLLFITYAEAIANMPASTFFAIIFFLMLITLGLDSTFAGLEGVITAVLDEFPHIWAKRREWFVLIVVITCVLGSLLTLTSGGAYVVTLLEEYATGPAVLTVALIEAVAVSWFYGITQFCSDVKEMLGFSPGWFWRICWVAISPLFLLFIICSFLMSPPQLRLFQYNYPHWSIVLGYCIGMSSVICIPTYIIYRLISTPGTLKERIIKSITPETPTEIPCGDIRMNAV

Rattus norvegicus [5] = assay: Ability (3 mg/kg) required to produce a dose dependent decrease in food intake; format: functional
Rattus norvegicus [6] = assay: Ability (10 mg/kg) required to produce a dose dependent decrease in food intake; format: functional
Mus musculus [7] = assay: Oral administration (30 mg/kg) required to reduced food intake relative to control at 4 hr post dose; format: functional
Mus musculus [8] = assay: Oral administration (30 mg/kg) required to reduced food intake relative to control at 6 hr post dose; format: functional
Mus musculus [9] = assay: Oral administration (30 mg/kg) required to reduced food intake relative to control at 24 hr post dose; format: functional
Rattus norvegicus [10] = assay: Ability (3 mg/kg) required to suppression the body weight gain relative to control; format: functional
Rattus norvegicus [11] = assay: Ability (10 mg/kg) required to suppression the body weight gain relative to control; format: functional

T1 sequence (Q99705 whole entry): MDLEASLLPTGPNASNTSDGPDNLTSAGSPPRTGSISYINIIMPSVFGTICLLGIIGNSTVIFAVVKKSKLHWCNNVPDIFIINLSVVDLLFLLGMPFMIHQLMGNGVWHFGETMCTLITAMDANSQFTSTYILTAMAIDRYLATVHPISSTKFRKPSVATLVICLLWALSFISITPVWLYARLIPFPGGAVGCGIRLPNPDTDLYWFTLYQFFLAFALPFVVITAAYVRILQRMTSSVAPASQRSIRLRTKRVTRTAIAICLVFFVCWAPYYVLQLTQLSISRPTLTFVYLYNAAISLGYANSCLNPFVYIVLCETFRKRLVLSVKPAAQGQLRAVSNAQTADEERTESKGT

Row | Compound | Ki [1] | AUC(0-t) at 6 h [2] | Kb [3] | other results
1 | N#Cc1cccc(-c2ccc(N(CCN3CC[C@@H](O)C3)C(=O)Nc3cc(Cl)cc(Cl)c3)cc2)c1 | 11 nM | 1850 ng·h/mL |  | 
2 | N#Cc1cccc(-c2ccc(N(CCN3CC[C@H](O)C3)C(=O)Nc3ccc(C(F)(F)F)c(F)c3)cc2)c1 | 7.3 nM | 1450 ng·h/mL |  | 
3 | N#Cc1cccc(-c2ccc(N(CCN3CC[C@@H](O)C3)C(=O)Nc3ccc(F)c(C(F)(F)F)c3)cc2)c1 | 1.8 nM | 2790 ng·h/mL | 8 nM | 
4 | CN(C)CCN(C(=O)Nc1ccc(C(F)(F)F)c(F)c1)c1ccc(-c2cccc(C#N)c2)cc1 | 6 nM | 4800 ng·h/mL |  | 
5 | CCS(=O)(=O)N1CCC(N(C(=O)Nc2ccc(F)c(C(F)(F)F)c2)c2ccc(-c3cccc(C#N)c3)cc2)CC1 | 166 nM |  |  | 
6 | CNCCN(C(=O)Nc1ccc(F)c(Cl)c1)c1ccc(-c2cccc(C#N)c2)cc1 | 6 nM |  | 6.2 nM | 
7 | CN1CCN(CCN(C(=O)Nc2ccc(C(F)(F)F)c(F)c2)c2ccc(-c3cccc(C#N)c3)cc2)CC1 | 8.2 nM | 542 ng·h/mL |  | Ki [4]: > 1000 nM
8 | CN(C)CCN(C(=O)Nc1cc(Cl)cc(Cl)c1)c1ccc(-c2cccc(C#N)c2)cc1 | 19 nM |  |  | 
9 | N#Cc1cccc(-c2ccc(N(CCN3CC[C@@H](O)C3)C(=O)Nc3ccc(C(F)(F)F)c(F)c3)cc2)c1 | 8.9 nM | 5470 ng·h/mL | 2 nM | Food intake (Rattus norvegicus [5]): 16.9%; Food intake (Rattus norvegicus [6]): 13.2%; Food intake (Mus musculus [7]): 16%; Food intake (Mus musculus [8]): 17%; Food intake (Mus musculus [9]): 14%; Body weight gain (Rattus norvegicus [10]): 1.2 g; Body weight gain (Rattus norvegicus [11]): 2.2 g
10 | CN(C)CCN(C(=O)Nc1ccc(F)c(Cl)c1)c1ccc(-c2cccc(C#N)c2)cc1 | 3.3 nM | 1950 ng·h/mL | 3.1 nM | Ki [4]: 1080 nM
11 | N#Cc1cccc(-c2ccc(N(CCN3CCCC3)C(=O)Nc3ccc(C(F)(F)F)c(F)c3)cc2)c1 |  | 967 ng·h/mL |  | 
12 | N#Cc1cccc(-c2ccc(N(CCN3CC[C@@H](O)C3)C(=O)Nc3ccc(F)c(Cl)c3)cc2)c1 | 7.1 nM | 1080 ng·h/mL |  | 
13 | CC(C)C(=O)N1CCC(N(C(=O)Nc2ccc(F)c(C(F)(F)F)c2)c2ccc(-c3cccc(C#N)c3)cc2)CC1 | 374 nM |  |  | 
